This passage reports Ki results from patent US6069143A, “Fibrinogen receptor antagonists” (SmithKline Beecham Corporation, priority 1996, dated 2000).

For the assay, the target named is T1, fibrinogen receptor (GPIIb-IIIa) (Homo sapiens, UniProt P05106+P08514).
T1 construct: Ten units of outdated, washed human platelets (obtained from Red Cross) were lyzed; from tissue; host or cells: outdated human platelets (Red Cross); GPIIb-IIIa purified on lentil lectin sepharose and incorporated in liposomes
As to the kind of experiment: Competitive binding to GPIIb-IIIa ([3H]-SK&F-107260 displacement, GPIIb-IIIa liposomes). The note with it: purified human platelet GPIIb-IIIa in liposomes; 4.5 nM [3H]-SK&F-107260; Ki from IC50 by Cheng and Prusoff equation; read-out: Ki, inhibition of [3H]-SK&F 107260 binding. The protocol: Ten units of outdated, washed human platelets (obtained from Red Cross) were lyzed by gentle stirring in 3% octylglucoside, 20 mM Tris-HCl, pH 7.4, 140 mM NaCl, 2 mM CaCl2 at 4° C. for 2 h. The lysate was centrifuged at 100,000 g for 1 h. The supernatant obtained was applied to a 5 mL lentil lectin sepharose 4B column (E.Y. Labs) preequilibrated with 20 mM Tris-HCl, pH 7.4, 100 mM NaCl, 2 mM CaCl2, 1% octylglucoside (buffer A). After 2 h incubation, the column was washed with 50 mL cold buffer A. The lectin-retained GPIIb-IIIa was eluted with buffer A containing 10% dextrose. All procedures were performed at 4° C. The GPIIb-IIIa obtained was >95% pure as shown by SDS polyacrylamide gel electrophoresis. […]
The binding to the fibrinogen receptor (GPIIb-IIIa) was assayed by an indirect competitive binding method using [^3 H]-SK&F-107260 as an RGD-type ligand. […] Bound radioactivity remaining on the filters was counted in 1.5 mL Ready Solve (Beckman Instruments, Fullerton, Calif.) in a Beckman Liquid Scintillation Counter (Model LS6800), with 40% efficiency. Nonspecific binding was determined in the presence of 2 μg unlabeled SK&F-107260 and was consistently less than 0.14% of the total radioactivity added to the samples. […]
Competition binding data were analyzed by a nonlinear least-squares curve fitting procedure. […]

T1 sequence (P08514 32-887 limits assumed): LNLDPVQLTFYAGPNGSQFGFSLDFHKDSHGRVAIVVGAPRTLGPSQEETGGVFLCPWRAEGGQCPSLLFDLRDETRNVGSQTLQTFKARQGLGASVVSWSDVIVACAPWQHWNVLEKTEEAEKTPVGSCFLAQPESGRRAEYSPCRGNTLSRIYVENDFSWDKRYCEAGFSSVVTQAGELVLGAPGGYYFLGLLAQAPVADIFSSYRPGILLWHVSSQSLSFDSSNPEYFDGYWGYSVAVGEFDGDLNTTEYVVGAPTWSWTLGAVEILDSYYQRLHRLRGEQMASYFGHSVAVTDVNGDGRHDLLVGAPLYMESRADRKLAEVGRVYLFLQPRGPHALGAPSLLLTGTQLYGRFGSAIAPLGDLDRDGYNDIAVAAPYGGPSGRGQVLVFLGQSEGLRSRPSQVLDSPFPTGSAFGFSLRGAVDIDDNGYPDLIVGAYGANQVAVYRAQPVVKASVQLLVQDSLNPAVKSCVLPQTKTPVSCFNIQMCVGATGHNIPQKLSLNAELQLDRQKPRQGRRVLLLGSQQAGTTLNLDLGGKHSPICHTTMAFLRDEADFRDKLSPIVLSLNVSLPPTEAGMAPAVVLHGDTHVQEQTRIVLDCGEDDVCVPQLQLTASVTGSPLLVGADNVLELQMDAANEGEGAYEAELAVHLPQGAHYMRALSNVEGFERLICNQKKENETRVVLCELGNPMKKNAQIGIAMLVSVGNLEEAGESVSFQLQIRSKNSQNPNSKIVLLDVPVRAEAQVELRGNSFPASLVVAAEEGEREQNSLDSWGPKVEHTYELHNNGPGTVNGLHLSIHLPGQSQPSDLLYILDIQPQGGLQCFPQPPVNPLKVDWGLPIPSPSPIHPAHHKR
T1 sequence (P08514 891-1039 limits assumed): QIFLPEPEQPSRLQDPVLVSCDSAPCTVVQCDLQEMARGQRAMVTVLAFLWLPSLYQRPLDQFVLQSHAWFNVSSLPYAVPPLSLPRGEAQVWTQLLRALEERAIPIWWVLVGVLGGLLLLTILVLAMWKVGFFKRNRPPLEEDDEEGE
T1 sequence (P05106 27-788): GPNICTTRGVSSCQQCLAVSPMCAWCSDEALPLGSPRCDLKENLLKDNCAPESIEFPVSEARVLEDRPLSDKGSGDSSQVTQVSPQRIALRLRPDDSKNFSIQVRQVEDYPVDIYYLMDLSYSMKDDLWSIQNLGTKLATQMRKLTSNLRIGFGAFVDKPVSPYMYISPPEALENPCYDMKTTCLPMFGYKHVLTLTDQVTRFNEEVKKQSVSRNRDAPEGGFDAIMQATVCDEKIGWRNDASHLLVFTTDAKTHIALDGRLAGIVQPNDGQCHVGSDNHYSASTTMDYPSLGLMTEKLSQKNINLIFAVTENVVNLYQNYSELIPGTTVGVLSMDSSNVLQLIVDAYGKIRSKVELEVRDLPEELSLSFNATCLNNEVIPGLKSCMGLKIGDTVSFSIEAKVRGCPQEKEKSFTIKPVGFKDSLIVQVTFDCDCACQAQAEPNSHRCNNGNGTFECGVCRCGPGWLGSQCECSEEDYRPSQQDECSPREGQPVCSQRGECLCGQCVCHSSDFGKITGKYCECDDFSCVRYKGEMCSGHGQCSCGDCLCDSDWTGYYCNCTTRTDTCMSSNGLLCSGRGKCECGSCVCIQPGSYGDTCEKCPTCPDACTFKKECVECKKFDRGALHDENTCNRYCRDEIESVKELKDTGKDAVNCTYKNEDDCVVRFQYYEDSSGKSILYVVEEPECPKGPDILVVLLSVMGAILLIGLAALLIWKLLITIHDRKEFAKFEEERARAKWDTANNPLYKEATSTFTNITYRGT

Take `O=C(O)CN1CCC(C(=O)Nc2ccc(N3CCNCC3)cc2)CC1` [Example 1, 4-[[[4-(1-piperazinyl)phenyl]amino]carbonyl]-1-piperidineacetic acid]: the Ki was roughly 5 nM.

Usually Ki stands for the equilibrium dissociation constant of an inhibitor or competing ligand from its target.
